{"source": "patent US12054463B2", "about": "“Radiolabeled microtubule imaging compounds and uses thereof” (The Trustees of Columbia University in the City of New York, priority 2017, dated 2024)", "key": {"Adenosine": {"molecular_target": "Adenosine", "test": "Affinity to brain targets (panel)", "assay_type": "binding", "settings": "Adenosine (A)"}, "α1A-1C": {"molecular_target": "α1A-1C", "test": "Affinity to brain targets (panel)", "assay_type": "binding"}, "BZP": {"molecular_target": "BZP", "test": "Affinity to brain targets (panel)", "assay_type": "binding", "settings": "BZP: benzodiazepine"}, "Ca++ channel": {"molecular_target": "Ca++ channel", "test": "Affinity to brain targets (panel)", "assay_type": "binding"}, "AMPA": {"molecular_target": "AMPA", "test": "Affinity to brain targets (panel)", "assay_type": "binding"}, "NET": {"molecular_target": "NET (Homo sapiens, UniProt P23975)", "sequence (P23975 whole entry)": "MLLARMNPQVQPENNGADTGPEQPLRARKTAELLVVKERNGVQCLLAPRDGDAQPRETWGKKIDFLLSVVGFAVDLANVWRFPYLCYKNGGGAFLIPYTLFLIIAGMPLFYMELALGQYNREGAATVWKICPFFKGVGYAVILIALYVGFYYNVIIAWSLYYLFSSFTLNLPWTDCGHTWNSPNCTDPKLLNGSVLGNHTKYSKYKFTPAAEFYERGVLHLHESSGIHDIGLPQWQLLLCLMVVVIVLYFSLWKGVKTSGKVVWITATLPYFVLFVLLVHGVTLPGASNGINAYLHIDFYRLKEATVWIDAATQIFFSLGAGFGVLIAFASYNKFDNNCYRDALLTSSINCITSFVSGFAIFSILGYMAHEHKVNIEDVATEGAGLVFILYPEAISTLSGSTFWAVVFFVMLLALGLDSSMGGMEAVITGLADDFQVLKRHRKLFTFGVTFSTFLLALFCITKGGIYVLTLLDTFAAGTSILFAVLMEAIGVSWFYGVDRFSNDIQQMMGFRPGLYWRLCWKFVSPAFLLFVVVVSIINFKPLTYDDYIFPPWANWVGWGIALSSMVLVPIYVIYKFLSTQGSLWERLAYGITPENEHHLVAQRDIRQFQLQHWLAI", "test": "Affinity to brain targets (panel)", "assay_type": "binding", "settings": "NET: norepinephrine transporter"}, "NK": {"molecular_target": "NK", "test": "Affinity to brain targets (panel)", "assay_type": "binding", "settings": "NK: neurokinin"}, "Sigma1": {"molecular_target": "Sigma1 (Homo sapiens, UniProt Q99720)", "sequence (Q99720 whole entry)": "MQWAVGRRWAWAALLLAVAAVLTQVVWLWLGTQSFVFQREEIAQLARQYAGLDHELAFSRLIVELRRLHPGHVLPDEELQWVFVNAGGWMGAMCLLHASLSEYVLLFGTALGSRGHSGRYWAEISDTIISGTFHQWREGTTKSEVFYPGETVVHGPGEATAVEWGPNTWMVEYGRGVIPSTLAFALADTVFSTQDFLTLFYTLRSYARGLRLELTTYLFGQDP", "test": "Affinity to brain targets (panel)", "assay_type": "binding"}, "Na+ Channel": {"molecular_target": "Na+ Channel", "test": "Affinity to brain targets (panel)", "assay_type": "binding"}, "mGluR": {"molecular_target": "mGluR", "test": "Affinity to brain targets (panel)", "assay_type": "binding", "settings": "mGluR (mGluRs): metabotropic glutamate receptors"}, "NOP": {"molecular_target": "NOP (Homo sapiens, UniProt P41146)", "sequence (P41146 whole entry)": "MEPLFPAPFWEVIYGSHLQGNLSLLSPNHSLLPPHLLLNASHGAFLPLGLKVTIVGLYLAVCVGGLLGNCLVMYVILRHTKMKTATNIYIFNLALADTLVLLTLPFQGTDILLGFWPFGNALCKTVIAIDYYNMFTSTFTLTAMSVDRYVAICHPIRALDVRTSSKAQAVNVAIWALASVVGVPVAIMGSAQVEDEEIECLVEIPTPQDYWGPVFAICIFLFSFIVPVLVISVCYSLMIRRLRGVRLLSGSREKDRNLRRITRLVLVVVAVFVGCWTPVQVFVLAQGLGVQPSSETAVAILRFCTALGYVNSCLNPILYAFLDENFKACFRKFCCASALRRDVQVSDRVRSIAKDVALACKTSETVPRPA", "test": "Affinity to brain targets (panel)", "assay_type": "binding"}, "PBR": {"molecular_target": "PBR (Homo sapiens, UniProt P30536)", "sequence (P30536 whole entry, species assumed)": "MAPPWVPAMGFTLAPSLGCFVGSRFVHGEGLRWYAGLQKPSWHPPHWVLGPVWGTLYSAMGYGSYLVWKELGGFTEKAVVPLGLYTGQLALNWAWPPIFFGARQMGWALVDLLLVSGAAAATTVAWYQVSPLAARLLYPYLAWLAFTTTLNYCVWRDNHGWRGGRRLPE", "test": "Affinity to brain targets (panel)", "assay_type": "binding"}, "Oxytocin": {"molecular_target": "T1, Oxytocin (Homo sapiens, UniProt P30559)", "T1 sequence (P30559 1-389)": "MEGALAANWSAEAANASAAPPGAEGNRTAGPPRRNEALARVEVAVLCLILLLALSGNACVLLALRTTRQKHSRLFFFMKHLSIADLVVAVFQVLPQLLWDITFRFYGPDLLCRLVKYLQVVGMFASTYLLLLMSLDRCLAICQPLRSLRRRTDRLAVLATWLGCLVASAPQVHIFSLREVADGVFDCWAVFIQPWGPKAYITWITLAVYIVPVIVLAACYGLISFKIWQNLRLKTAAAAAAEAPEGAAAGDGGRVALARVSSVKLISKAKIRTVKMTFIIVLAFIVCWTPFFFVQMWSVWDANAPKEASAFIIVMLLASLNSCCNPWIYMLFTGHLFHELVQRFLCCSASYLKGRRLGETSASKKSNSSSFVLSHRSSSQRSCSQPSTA", "test": "Affinity to brain targets (panel)", "assay_type": "binding"}, "Smoothened": {"molecular_target": "Smoothened (Homo sapiens, UniProt Q99835)", "sequence (Q99835 28-787)": "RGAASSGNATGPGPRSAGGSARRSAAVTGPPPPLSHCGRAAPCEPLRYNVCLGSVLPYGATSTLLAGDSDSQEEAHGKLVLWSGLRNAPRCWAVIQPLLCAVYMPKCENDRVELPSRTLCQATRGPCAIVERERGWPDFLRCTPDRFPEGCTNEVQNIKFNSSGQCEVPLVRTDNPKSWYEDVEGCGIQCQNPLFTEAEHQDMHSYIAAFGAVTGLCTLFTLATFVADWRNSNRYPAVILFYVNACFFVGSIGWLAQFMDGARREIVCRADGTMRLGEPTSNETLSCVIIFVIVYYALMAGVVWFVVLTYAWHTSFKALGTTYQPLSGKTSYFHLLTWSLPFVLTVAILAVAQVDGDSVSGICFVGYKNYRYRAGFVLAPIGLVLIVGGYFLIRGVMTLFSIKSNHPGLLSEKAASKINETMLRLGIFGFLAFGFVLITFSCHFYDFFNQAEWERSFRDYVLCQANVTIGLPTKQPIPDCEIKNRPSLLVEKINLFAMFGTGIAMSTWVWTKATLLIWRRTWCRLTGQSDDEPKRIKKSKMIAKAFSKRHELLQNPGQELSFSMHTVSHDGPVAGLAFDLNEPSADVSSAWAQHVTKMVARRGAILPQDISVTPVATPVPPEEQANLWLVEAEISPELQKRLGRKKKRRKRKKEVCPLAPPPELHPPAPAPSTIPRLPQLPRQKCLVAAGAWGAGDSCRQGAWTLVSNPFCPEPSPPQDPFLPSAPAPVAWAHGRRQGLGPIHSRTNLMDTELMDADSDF", "test": "Affinity to brain targets (panel)", "assay_type": "binding"}, "KA": {"molecular_target": "KA", "test": "Affinity to brain targets (panel)", "assay_type": "binding", "settings": "KA (KAR): Kainate"}, "DAT": {"molecular_target": "DAT (Homo sapiens, UniProt Q01959)", "test": "Affinity to brain targets (panel)", "assay_type": "binding", "settings": "DAT: dopamine transporters"}, "DOR": {"molecular_target": "DOR (Homo sapiens, UniProt P41143)", "sequence (P41143 whole entry)": "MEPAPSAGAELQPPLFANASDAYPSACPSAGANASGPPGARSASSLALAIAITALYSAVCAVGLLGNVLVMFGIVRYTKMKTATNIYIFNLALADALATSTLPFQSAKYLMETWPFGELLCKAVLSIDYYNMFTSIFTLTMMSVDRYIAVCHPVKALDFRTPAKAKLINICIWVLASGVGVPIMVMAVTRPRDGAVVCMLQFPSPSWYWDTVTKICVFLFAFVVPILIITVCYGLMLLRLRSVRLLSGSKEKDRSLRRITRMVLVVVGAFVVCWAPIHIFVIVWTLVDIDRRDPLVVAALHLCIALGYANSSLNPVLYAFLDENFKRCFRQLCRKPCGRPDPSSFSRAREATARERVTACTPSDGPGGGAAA", "test": "Affinity to brain targets (panel)", "assay_type": "binding", "settings": "DOR: delta opioid receptors"}, "EP": {"molecular_target": "EP", "test": "Affinity to brain targets (panel)", "assay_type": "binding", "settings": "EP: prostanoid receptors"}, "GABA": {"molecular_target": "GABA", "test": "Affinity to brain targets (panel)", "assay_type": "binding"}, "HERG": {"molecular_target": "HERG (Homo sapiens, UniProt Q12809)", "sequence (Q12809 whole entry)": "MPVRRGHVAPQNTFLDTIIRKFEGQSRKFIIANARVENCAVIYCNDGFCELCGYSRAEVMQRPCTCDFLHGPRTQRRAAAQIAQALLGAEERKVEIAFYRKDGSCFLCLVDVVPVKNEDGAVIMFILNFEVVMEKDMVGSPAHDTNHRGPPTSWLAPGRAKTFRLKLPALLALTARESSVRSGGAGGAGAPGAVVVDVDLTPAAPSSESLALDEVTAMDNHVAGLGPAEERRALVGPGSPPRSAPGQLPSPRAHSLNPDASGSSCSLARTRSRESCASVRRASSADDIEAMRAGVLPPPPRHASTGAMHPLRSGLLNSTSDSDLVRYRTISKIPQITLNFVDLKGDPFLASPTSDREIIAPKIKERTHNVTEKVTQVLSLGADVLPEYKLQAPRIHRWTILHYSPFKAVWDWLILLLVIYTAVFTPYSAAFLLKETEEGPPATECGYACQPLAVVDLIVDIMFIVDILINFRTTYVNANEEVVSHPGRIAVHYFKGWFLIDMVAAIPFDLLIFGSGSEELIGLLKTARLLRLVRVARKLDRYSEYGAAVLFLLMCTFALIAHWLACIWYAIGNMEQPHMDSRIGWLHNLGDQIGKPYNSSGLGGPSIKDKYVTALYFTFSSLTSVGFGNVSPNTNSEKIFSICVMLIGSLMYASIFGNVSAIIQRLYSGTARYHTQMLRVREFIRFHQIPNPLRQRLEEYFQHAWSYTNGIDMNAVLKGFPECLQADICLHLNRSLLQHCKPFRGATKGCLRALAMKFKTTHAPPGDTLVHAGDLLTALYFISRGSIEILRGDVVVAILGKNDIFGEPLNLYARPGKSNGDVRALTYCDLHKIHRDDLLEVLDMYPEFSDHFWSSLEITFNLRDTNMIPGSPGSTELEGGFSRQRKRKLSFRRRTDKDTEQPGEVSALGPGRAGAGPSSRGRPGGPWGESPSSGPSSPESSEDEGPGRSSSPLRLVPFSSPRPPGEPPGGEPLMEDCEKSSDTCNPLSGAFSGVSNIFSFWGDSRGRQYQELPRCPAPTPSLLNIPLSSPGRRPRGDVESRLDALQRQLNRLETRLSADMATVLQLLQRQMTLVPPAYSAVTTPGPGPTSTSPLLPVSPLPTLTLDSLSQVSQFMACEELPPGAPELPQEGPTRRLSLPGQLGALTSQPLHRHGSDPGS", "test": "Affinity to brain targets (panel)", "assay_type": "binding", "settings": "HERG: human ether-a-go-go"}, "KOR": {"molecular_target": "KOR (Homo sapiens, UniProt P41145)", "test": "Affinity to brain targets (panel)", "assay_type": "binding", "settings": "KOR: kappa opioid receptors"}, "M": {"molecular_target": "M", "test": "Affinity to brain targets (panel)", "assay_type": "binding", "settings": "M: muscarinic"}, "H3, H4": {"molecular_target": "H3, H4", "test": "Affinity to brain targets (panel)", "assay_type": "binding", "settings": "H3, H4: histamine"}, "MDR1": {"molecular_target": "MDR1 (Homo sapiens, UniProt P08183)", "test": "Affinity to brain targets (panel)", "assay_type": "binding", "settings": "MDR1: multidrug resistance"}, "H1": {"molecular_target": "H1 (Homo sapiens, UniProt P35367)", "test": "Affinity to brain targets (panel)", "assay_type": "binding", "settings": "H1: histamine"}, "H2": {"molecular_target": "H2 (Homo sapiens, UniProt P25021)", "sequence (P25021 whole entry)": "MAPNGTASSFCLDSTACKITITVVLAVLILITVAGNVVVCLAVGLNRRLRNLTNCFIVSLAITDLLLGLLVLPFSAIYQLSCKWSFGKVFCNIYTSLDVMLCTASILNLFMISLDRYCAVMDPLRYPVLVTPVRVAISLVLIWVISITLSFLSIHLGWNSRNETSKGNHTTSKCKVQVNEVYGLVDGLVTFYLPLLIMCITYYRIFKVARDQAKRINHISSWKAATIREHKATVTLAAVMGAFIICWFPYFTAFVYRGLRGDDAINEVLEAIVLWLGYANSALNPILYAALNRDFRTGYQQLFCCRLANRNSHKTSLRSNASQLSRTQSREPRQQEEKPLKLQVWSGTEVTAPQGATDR", "test": "Affinity to brain targets (panel)", "assay_type": "binding", "settings": "H2: histamine"}, "MOR": {"molecular_target": "MOR (Homo sapiens, UniProt P35372)", "sequence (P35372 whole entry)": "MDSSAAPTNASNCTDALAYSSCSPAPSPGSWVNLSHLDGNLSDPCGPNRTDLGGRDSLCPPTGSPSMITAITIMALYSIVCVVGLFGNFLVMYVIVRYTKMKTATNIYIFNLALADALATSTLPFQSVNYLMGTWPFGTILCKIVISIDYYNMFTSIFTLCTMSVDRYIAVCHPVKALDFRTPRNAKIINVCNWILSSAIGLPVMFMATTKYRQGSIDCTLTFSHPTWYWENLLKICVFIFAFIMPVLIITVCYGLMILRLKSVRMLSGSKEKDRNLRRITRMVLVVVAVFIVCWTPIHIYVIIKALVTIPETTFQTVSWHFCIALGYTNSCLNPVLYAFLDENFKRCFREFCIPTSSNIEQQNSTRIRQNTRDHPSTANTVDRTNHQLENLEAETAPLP", "test": "Affinity to brain targets (panel)", "assay_type": "binding", "settings": "MOR: mu opioid receptor"}, "NMDA": {"molecular_target": "NMDA", "test": "Affinity to brain targets (panel)", "assay_type": "binding"}, "SERT": {"molecular_target": "SERT (Homo sapiens, UniProt P31645)", "test": "Affinity to brain targets (panel)", "assay_type": "binding", "settings": "SERT: serotonin transporter"}, "Sigma2": {"molecular_target": "Sigma2 (Homo sapiens, UniProt Q5BJF2)", "sequence (Q5BJF2 whole entry)": "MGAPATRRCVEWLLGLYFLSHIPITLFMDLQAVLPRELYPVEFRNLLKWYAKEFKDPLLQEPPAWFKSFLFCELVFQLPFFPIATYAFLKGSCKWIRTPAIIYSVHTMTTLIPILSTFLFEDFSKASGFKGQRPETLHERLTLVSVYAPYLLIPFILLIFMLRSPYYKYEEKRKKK", "test": "Affinity to brain targets (panel)", "assay_type": "binding", "settings": "Sigma2 (Sigma 2)"}, "I": {"molecular_target": "I", "test": "Affinity to brain targets (panel)", "assay_type": "binding"}, "VMAT": {"molecular_target": "VMAT", "test": "Affinity to brain targets (panel)", "assay_type": "binding", "settings": "VMAT (VMAT 1,2): vesicular monoamine transporter"}, "NT": {"molecular_target": "NT", "test": "Affinity to brain targets (panel)", "assay_type": "binding", "settings": "NT: neurotrophin"}, "PKC": {"molecular_target": "PKC", "test": "Affinity to brain targets (panel)", "assay_type": "binding", "settings": "PKC: Protein kinase C"}, "5-HT1A-1E": {"molecular_target": "5-HT1A-1E", "test": "Affinity to brain targets (panel)", "assay_type": "binding"}, "5-HT2A-2C": {"molecular_target": "5-HT2A-2C", "test": "Affinity to brain targets (panel)", "assay_type": "binding"}, "5-HT3-7": {"molecular_target": "5-HT3-7", "test": "Affinity to brain targets (panel)", "assay_type": "binding"}, "α2A-2C": {"molecular_target": "α2A-2C", "test": "Affinity to brain targets (panel)", "assay_type": "binding"}, "β1-3": {"molecular_target": "β1-3", "test": "Affinity to brain targets (panel)", "assay_type": "binding"}, "CB1, CB2": {"molecular_target": "CB1, CB2", "test": "Affinity to brain targets (panel)", "assay_type": "binding"}, "D1-D5": {"molecular_target": "D1-D5", "test": "Affinity to brain targets (panel)", "assay_type": "binding"}, "Microtubule": {"tested_on": "Microtubule", "settings": "MT; reference 12; cited from earlier work"}, "MT": {"tested_on": "MT", "settings": "listed under MT; reference 12; cited from earlier work"}, "panel of kinases": {"tested_on": "panel of kinases", "settings": "cited from earlier work"}, "[1]": {"settings": "references 12-14; cited from earlier work"}, "tumor xenografts": {"tested_on": "tumor xenografts", "settings": "references 12-14; cited from earlier work"}}}
{"smiles": "COc1ccc(N(C)c2ncnc3occ(C)c23)cc1", "note": "[HD-800, reference compound]", "values": [{"measurement": "Ki", "setting": "Adenosine", "value": "> 10", "unit": "µM"}, {"measurement": "Ki", "setting": "α1A-1C", "value": "> 10", "unit": "µM"}, {"measurement": "Ki", "setting": "BZP", "value": "> 10", "unit": "µM"}, {"measurement": "Ki", "setting": "Ca++ channel", "value": "> 10", "unit": "µM"}, {"measurement": "Ki", "setting": "AMPA", "value": "> 10", "unit": "µM"}, {"measurement": "Ki", "setting": "NET", "value": "> 10", "unit": "µM"}, {"measurement": "Ki", "setting": "NK", "value": "> 10", "unit": "µM"}, {"measurement": "Ki", "setting": "Sigma1", "value": "> 10", "unit": "µM"}, {"measurement": "Ki", "setting": "Na+ Channel", "value": "> 10", "unit": "µM"}, {"measurement": "Ki", "setting": "mGluR", "value": "> 10", "unit": "µM"}, {"measurement": "Ki", "setting": "NOP", "value": "> 10", "unit": "µM"}, {"measurement": "Ki", "setting": "PBR", "value": 2.36, "unit": "µM"}, {"measurement": "Ki", "setting": "Oxytocin", "value": "> 10", "unit": "µM"}, {"measurement": "Ki", "setting": "Smoothened", "value": "> 10", "unit": "µM"}, {"measurement": "Ki", "setting": "KA", "value": "> 10", "unit": "µM"}, {"measurement": "Ki", "setting": "DAT", "value": "> 10", "unit": "µM"}, {"measurement": "Ki", "setting": "DOR", "value": "> 10", "unit": "µM"}, {"measurement": "Ki", "setting": "EP", "value": "> 10", "unit": "µM"}, {"measurement": "Ki", "setting": "GABA", "value": "> 10", "unit": "µM"}, {"measurement": "Ki", "setting": "HERG", "value": "> 10", "unit": "µM"}, {"measurement": "Ki", "setting": "KOR", "value": "> 10", "unit": "µM"}, {"measurement": "Ki", "setting": "M", "value": "> 10", "unit": "µM"}, {"measurement": "Ki", "setting": "H3, H4", "value": "> 10", "unit": "µM"}, {"measurement": "Ki", "setting": "MDR1", "value": "> 10", "unit": "µM"}, {"measurement": "Ki", "setting": "H1", "value": "> 10", "unit": "µM"}, {"measurement": "Ki", "setting": "H2", "value": "> 10", "unit": "µM"}, {"measurement": "Ki", "setting": "MOR", "value": "> 10", "unit": "µM"}, {"measurement": "Ki", "setting": "NMDA", "value": "> 10", "unit": "µM"}, {"measurement": "Ki", "setting": "SERT", "value": "> 10", "unit": "µM"}, {"measurement": "Ki", "setting": "Sigma2", "value": "> 10", "unit": "µM"}, {"measurement": "Ki", "setting": "I", "value": "> 10", "unit": "µM"}, {"measurement": "Ki", "setting": "VMAT", "value": "> 10", "unit": "µM"}, {"measurement": "Ki", "setting": "NT", "value": "> 10", "unit": "µM"}, {"measurement": "Ki", "setting": "PKC", "value": "> 10", "unit": "µM"}, {"measurement": "Ki", "setting": "5-HT1A-1E", "value": "> 10", "unit": "µM"}, {"measurement": "Ki", "setting": "5-HT2A-2C", "value": "> 10", "unit": "µM"}, {"measurement": "Ki", "setting": "5-HT3-7", "value": "> 10", "unit": "µM"}, {"measurement": "Ki", "setting": "α2A-2C", "value": "> 10", "unit": "µM"}, {"measurement": "Ki", "setting": "β1-3", "value": "> 10", "unit": "µM"}, {"measurement": "Ki", "setting": "CB1, CB2", "value": "> 10", "unit": "µM"}, {"measurement": "Ki", "setting": "D1-D5", "value": "> 10", "unit": "µM"}, {"measurement": "IC50", "setting": "Microtubule", "value": 0.0032, "unit": "µM"}, {"measurement": "GI50", "setting": "MT", "value": "< 0.01", "unit": "µM"}, {"measurement": "binding to a panel / variety of kinases", "setting": "panel of kinases", "value": "selective"}, {"measurement": "BBB penetration", "setting": "[1]", "value": "BBB penetrant"}, {"measurement": "tumor growth inhibition (TGI) compared with paclitaxel", "setting": "tumor xenografts", "value": "higher tumor growth inhibition (TGI) than paclitaxel"}]}
